System: 186277-243-T-J2-PDC complex spheroid viability
Assay: Anticancer human tumor 186277-243-T-J2-PDC patient-derived colon adenocarcinoma cell line growth inhibition [POLQ]
Details: for IC50: curve of first compound; for viability, T/C: stronger effect = lower value
How it was run: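 PDC + HUVEC + MSC complex spheroids; POLQ inhibitors ± partner drugs; top conc. at/near clinical Cmax, else 10 microM (SN-38 1 microM), half-log dilutions; 37 degrees C, 5% CO2.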

[1] = second compound 0.0316 µM, first compound 0.0316 µM
[2] = second compound 0.0316 µM, first compound 0.1 µM
[3] = second compound 0.0316 µM, first compound 0.316 µM
[4] = second compound 0.0316 µM, first compound 1 µM
[5] = second compound 0.1 µM, first compound 0.0316 µM
[6] = second compound 0.1 µM, first compound 0.1 µM
[7] = second compound 0.1 µM, first compound 0.316 µM
[8] = second compound 0.1 µM, first compound 1 µM
[9] = second compound 0.316 µM, first compound 0.0316 µM
[10] = second compound 0.316 µM, first compound 0.1 µM
[11] = second compound 0.316 µM, first compound 0.316 µM
[12] = second compound 0.316 µM, first compound 1 µM
[13] = second compound 1 µM, first compound 0.0316 µM
[14] = second compound 1 µM, first compound 0.1 µM
[15] = second compound 1 µM, first compound 0.316 µM
[16] = second compound 1 µM, first compound 1 µM
[17] = second compound 3.16 µM, first compound 0.0316 µM
[18] = second compound 3.16 µM, first compound 0.1 µM
[19] = second compound 3.16 µM, first compound 0.316 µM
[20] = second compound 3.16 µM, first compound 1 µM
[21] = second compound 10 µM, first compound 0.0316 µM
[22] = second compound 10 µM, first compound 0.1 µM
[23] = second compound 10 µM, first compound 0.316 µM
[24] = second compound 10 µM, first compound 1 µM
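Also: spheroids exposed to compounds for seven days.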
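For viability, T/C in this document: 100% = DMSO vehicle control viability.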

Work on `C=CCn1c(=O)c2cnc(Nc3ccc(N4CCN(C)CC4)cc3)nc2n1-c1cccc(C(C)(C)O)n1` + Cc1cccc(N(C)C(=O)C2C(O)CCN2c2nc(C)cc(C(F)(F)F)c2C#N)c1 yielded an IC50 (second compound 0.0316 µM) of 213 nM, an IC50 (second compound 0.1 µM) of 230 nM and an IC50 (second compound 0.316 µM) of 220 nM. It also gave an IC50 (second compound 1 µM) of 226 nM, an IC50 (second compound 3.16 µM) of 223 nM and an IC50 (second compound 10 µM) of 224 nM. For the same compound, the viability, T/C (second compound 0.0316 µM, first compound 0.00316 µM) was 107%, the viability, T/C (second compound 0.0316 µM, first compound 0.01 µM) was 102% and the viability, T/C [1] was 88.4%. It also gave a viability, T/C [2] of 96.3%, a viability, T/C [3] of 25.9% and a viability, T/C [4] of 12.5%. The viability, T/C (second compound 0.1 µM, first compound 0.00316 µM) was 99.1%, the viability, T/C (second compound 0.1 µM, first compound 0.01 µM) was 112% and the viability, T/C [5] was 95.3%. For the same compound, the viability, T/C [6] was 106%, the viability, T/C [7] was 29.6% and the viability, T/C [8] was 13.7%. The viability, T/C (second compound 0.316 µM, first compound 0.00316 µM) was 88.1%, the viability, T/C (second compound 0.316 µM, first compound 0.01 µM) was 99.4% and the viability, T/C [9] was 103%. For the same compound, the viability, T/C [10] was 111%, the viability, T/C [11] was 26.6% and the viability, T/C [12] was 13.8%. It also gave a viability, T/C (second compound 1 µM, first compound 0.00316 µM) of 102%, a viability, T/C (second compound 1 µM, first compound 0.01 µM) of 119% and a viability, T/C [13] of 104%. The viability, T/C [14] was 110%, the viability, T/C [15] was 25.7% and the viability, T/C [16] was 12.5%. The viability, T/C (second compound 3.16 µM, first compound 0.00316 µM) was 119%, the viability, T/C (second compound 3.16 µM, first compound 0.01 µM) was 95.7% and the viability, T/C [17] was 102%. It also gave a viability, T/C [18] of 131%, a viability, T/C [19] of 22.8% and a viability, T/C [20] of 16.8%. For the same compound, the viability, T/C (second compound 10 µM, first compound 0.00316 µM) was 116%, the viability, T/C (second compound 10 µM, first compound 0.01 µM) was 102% and the viability, T/C [21] was 106%. It also gave a viability, T/C [22] of 106%, a viability, T/C [23] of 24.7% and a viability, T/C [24] of 12.8%.

`COc1ccc([C@@H](O)c2cc(-c3ncnc4cc(N5CCOCC5)ccc34)c(F)cc2Cl)nn1` + Cc1cccc(N(C)C(=O)C2C(O)CCN2c2nc(C)cc(C(F)(F)F)c2C#N)c1 gave an IC50 (second compound 0.0316 µM) of 5900 nM, an IC50 (second compound 0.1 µM) of 5560 nM and an IC50 (second compound 0.316 µM) of 6690 nM. It also gave an IC50 (second compound 1 µM) of 6390 nM, an IC50 (second compound 3.16 µM) of 5810 nM and an IC50 (second compound 10 µM) of 6170 nM. The viability, T/C [1] was 102%, the viability, T/C [2] was 105% and the viability, T/C [3] was 94.9%. It also gave a viability, T/C [4] of 110%, a viability, T/C (second compound 0.0316 µM, first compound 3.16 µM) of 74.3% and a viability, T/C (second compound 0.0316 µM, first compound 10 µM) of 29.4%. It also gave a viability, T/C [5] of 101%, a viability, T/C [6] of 112% and a viability, T/C [7] of 109%. The viability, T/C [8] was 97.9%, the viability, T/C (second compound 0.1 µM, first compound 3.16 µM) was 71.3% and the viability, T/C (second compound 0.1 µM, first compound 10 µM) was 28.1%. It also gave a viability, T/C [9] of 90.4%, a viability, T/C [10] of 105% and a viability, T/C [11] of 101%. For the same compound, the viability, T/C [12] was 104%, the viability, T/C (second compound 0.316 µM, first compound 3.16 µM) was 86.2% and the viability, T/C (second compound 0.316 µM, first compound 10 µM) was 30.4%. The viability, T/C [13] was 100%, the viability, T/C [14] was 107% and the viability, T/C [15] was 97%. It also gave a viability, T/C [16] of 98.1%, a viability, T/C (second compound 1 µM, first compound 3.16 µM) of 81% and a viability, T/C (second compound 1 µM, first compound 10 µM) of 30%. For the same compound, the viability, T/C [17] was 107%, the viability, T/C [18] was 114% and the viability, T/C [19] was 109%. It also gave a viability, T/C [20] of 99.4%, a viability, T/C (second compound 3.16 µM, first compound 3.16 µM) of 76.9% and a viability, T/C (second compound 3.16 µM, first compound 10 µM) of 26.2%. It also gave a viability, T/C [21] of 101%, a viability, T/C [22] of 102% and a viability, T/C [23] of 125%. It also gave a viability, T/C [24] of 109%, a viability, T/C (second compound 10 µM, first compound 3.16 µM) of 84.3% and a viability, T/C (second compound 10 µM, first compound 10 µM) of 25.1%.
